Legend:
Assay type in all cases: cell-based
hTLR7 = target: T1, hTLR7 (Homo sapiens, UniProt Q9NYK1); test: Human TLR/NLR agonist screening, NF-κB SEAP reporter in HEK293 cells; conditions: agonist mode, Control+ = CL307 1 μg/mL
T1 construct: expressed in transfected cells; host or cells: HEK293
T1 sequence (Q9NYK1 27-1049): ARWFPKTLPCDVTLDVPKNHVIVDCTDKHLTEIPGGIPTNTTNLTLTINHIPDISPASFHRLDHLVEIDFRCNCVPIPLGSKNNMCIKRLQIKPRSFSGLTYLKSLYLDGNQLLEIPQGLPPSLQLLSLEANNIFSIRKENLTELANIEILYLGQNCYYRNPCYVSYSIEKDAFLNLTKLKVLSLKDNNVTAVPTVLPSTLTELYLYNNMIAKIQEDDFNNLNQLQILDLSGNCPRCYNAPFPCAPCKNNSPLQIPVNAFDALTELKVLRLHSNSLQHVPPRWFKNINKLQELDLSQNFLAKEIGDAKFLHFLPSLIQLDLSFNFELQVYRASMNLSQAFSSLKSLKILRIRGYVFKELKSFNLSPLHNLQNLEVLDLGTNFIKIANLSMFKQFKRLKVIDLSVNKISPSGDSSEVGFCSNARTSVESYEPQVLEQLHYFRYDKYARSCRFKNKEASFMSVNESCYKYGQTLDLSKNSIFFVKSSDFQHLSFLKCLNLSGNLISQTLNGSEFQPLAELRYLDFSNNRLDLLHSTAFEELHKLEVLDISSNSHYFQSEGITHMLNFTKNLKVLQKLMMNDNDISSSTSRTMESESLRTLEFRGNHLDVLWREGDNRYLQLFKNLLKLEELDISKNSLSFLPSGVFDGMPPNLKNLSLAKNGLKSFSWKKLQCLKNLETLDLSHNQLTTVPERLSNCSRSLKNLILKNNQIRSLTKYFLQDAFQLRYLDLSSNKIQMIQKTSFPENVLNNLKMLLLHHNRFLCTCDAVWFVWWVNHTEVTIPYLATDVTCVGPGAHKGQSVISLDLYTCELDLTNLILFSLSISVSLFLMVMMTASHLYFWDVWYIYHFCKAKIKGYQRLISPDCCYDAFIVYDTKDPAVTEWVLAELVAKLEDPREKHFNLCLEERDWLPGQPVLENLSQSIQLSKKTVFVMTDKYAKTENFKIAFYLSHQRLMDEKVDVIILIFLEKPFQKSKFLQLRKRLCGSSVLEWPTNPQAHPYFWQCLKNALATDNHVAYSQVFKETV
Procedure: (§1) Toll-Like Receptor (TLR), NOD-Like Receptor (NLR) and C-Type Lectin Receptor (CLR) stimulation were tested by assessing NF-κB activation in HEK293 cells expressing a given TLR, NLR or CLR. The activity of the test articles was tested at one concentration and compared to control ligands. These steps were performed in triplicate.
hTLR7: CL307 at 1 μg/mL Antagonist: 10 ng/mL.
(§2) In a 96-well plate (200 μL total volume) containing the appropriate cells (50,000-75,000 cells/well), 20 μL of the test article or the positive control ligand was added to the wells. For the antagonist assay, the test article was incubated with the cells, at 37° C. with 5% CO2, for 30 minutes prior to the addition of the positive control ligand to the wells. The media added to the wells was designed for the detection of NF-κB induced SEAP expression. After a 16-24 hr incubation the optical density (OD) was read at 650 nm on a Molecular Devices SpectraMax 340PC absorbance detector.
The fold induction (ratio of average induced value to average non-induced value) results were as follows: […]

hDectin-1b = target: T2, hDectin-1b (Homo sapiens, UniProt Q9BXN2); test: Human CLR agonist screening, NF-κB SEAP reporter in HEK293 cells; conditions: agonist mode, Curdlan 100 μg/mL
T2 construct: expressed in transfected cells; host or cells: HEK293
Procedure: as §1
(§3) hDectin-1a and hDectin-1b: WGP Soluble (0-glucan from S. cerevisiae) at 10 ng/mL Antagonist: 5 ng/mL. Curdlan at 100 μg/mL. Antagonist: 100 μg/mL. Zymosan Depleted (hot alkali treated S. cerevisiae) at 5 μg/mL Antagonist: 3 μg/mL.
as §2
(§4) Fold Induction (Ratio of Average Induced Value to Average Non-Induced Value): […]

hDectin-1a = target: T3, hDectin-1a (Homo sapiens, UniProt Q9BXN2); test: as above; conditions: agonist mode, Curdlan 100 μg/mL
T3 construct: expressed in transfected cells; host or cells: HEK293
Procedure: as §1, §3, §2, §4

T2 sequence (Q9BXN2 1-201 isoform Q9BXN2-2): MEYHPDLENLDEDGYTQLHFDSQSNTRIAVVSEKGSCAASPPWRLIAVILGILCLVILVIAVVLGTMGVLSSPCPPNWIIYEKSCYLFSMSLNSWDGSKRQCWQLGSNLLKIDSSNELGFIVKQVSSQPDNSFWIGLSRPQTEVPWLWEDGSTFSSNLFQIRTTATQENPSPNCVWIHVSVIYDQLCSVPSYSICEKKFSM
T3 sequence (Q9BXN2 whole entry): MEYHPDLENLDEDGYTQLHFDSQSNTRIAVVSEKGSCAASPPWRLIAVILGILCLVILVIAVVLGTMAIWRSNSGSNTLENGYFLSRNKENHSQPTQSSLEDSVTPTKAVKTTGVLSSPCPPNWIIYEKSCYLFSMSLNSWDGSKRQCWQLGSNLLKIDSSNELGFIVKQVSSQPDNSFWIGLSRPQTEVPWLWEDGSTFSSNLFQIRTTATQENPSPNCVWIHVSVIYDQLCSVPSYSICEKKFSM

| Fold induction (ratio of average induced value to average non-induced value) (hTLR7) | Fold induction (ratio of average induced value to average non-induced value) (hDectin-1b) | Fold induction (ratio of average induced value to average non-induced value) (hDectin-1a) | Compound |
| --- | --- | --- | --- |
| 34 | – | – | CCCCNc1nc(N)c2[nH]c(=O)n(Cc3ccc(C(=O)NCC(=O)NCCCNCCCCNCCCN)cc3)c2n1 [CL307] |
| – | 8 | 6 | Curdlan |

— patent US11400059B2, “Treatment of pain and/or pain related symptoms associated with dysmenorrhea” (ALYRA BIOTECH PTY LTD, priority 2017, dated 2022)
